One experiment concerns Rag1^−/− mice. Kind of experiment: Adoptive transfer myocarditis model with antibiotics treatment. In kind it is in vivo, mouse. The conditions noted are these: for accumulation of TCR-transgenic CD4^+ T cells in hearts / cardiac inflammation by flow cytometry (heart-infiltrating CD45^+ cells): day 28. Here is the method:
For the generation of single-cell suspensions, spleens and lymph nodes were collected in BSS and were mechanically disrupted on a metallic grid. To confirm the presence of heart-infiltrating cells, mice received 2 μg of anti-CD45.2 BV510 or anti-Thy 1.1 PE i.v. 5 min before being euthanized in the indicated experiments. Euthanized animals were perfused with 20 ml PBS and small heart tissue pieces were placed into a 6-well dish filled with RPMI 1640 medium containing 2% FCS, 20 mM HEPES (Lonza), 1 mg/ml collagenase 0 (Sigma) and 25 μg/ml DNasel (Applichem) and incubated at 37° C. under continuous stirring. The remaining tissue pieces were mechanically disrupted and mononuclear cells were purified by centrifugation (25 min at 800×g, 4° C.) on a 30-70% Percoll gradient (GE Healthcare). For isolation of colonic lamina propria cells, colons were flushed and tissue was harvested and incubated three times for 15 min at room temperature under constant agitation with BSS containing 5% FCS (Lonza), 5 mM EDTA (Sigma), 10 mM HEPES (Sigma) and 1 mM OTT in order to dissociate the epithelial layer. The tissue was subsequently washed with SS containing 10 mM HEPES and digested three times for 20 min at 37° C. with 120 μg/ml collagenase P (Roche), 25 μg/ml DNAse I (Applichem) and 5 μg/ml Dispase I (Roche) in RPMI-1640; after obtaining a single cell suspension, cells were purified by a 30-70% Percoll gradient. Single-cell suspensions were first stained with the fixable viability dye Zombie Aqua (Biolegend) and incubated for 30 min on ice; after washing, cells were incubated for 20 min at 4° C. in PBS containing 2% FCS and 10 mM EDTA with fluorochrome-labeled antibodies (Table 5). Cells were acquired with a BD LSRFortessa (BD Biosciences) and analyzed using FlowJo software (Treestar Inc) following stablished guidelines (32). […] Cells were stimulated with 0.25 μg of the different peptides (see below), or phorbol myristate acetate (50 ng/ml; Sigma)/ionomycin (500 ng/ml; Sigma) (PMA/l) as positive control, or were left untreated. After surface molecule labelling, cells were stained with the fixable viability dye Zombie Aqua (Biolegend). Cells were fixed with cytofix-cytoperm (BD Biosciences) for 20 min. […] Samples were measured using a BD LSR Fortessa (BD Biosciences). Data were analyzed using FlowJo software (Tree Star, Inc.). […] Red blood cells were lysed by osmotic shock and 10^6 splenocytes were injected intravenously in 4 wk mice in the lateral tail vein of Rag1^−/− mice. Seven days after adoptive transfer, mice were bled to confirm CD4^+ T cell expansion. Disease activity scores and analysis of T cell activation in the heart and colonic lamina propria were performed at day 28 post adoptive transfer.

Another experiment concerns B. thetaiotaomicron. Kind of experiment: Quantitative B. thetaiotaomicron PCR in feces. The format is in vivo, Bacteroides thetaiotaomicron. The note with it: Rag1^−/− recipients, qPCR. As to the method:
Bacterial genomic DNA was extracted using a commercial kit (QIAamp DNA Stool Mini Kit) with minor modifications. Glass beads (Sigma, G4649-10G) were used for an optimal disruption of fecal content and an additional extraction step was introduced after incubation of bacteria with a lysis buffer (20 mg/ml lysozyme—Sigma 62970-5G-F, 2 mM EDTA, 1.2% Triton, 20 mM Tris-HCl). Extracted genomic DNA was used as a template for B. thetaiotaomicron PCR amplification and quantification using a real-time PCR machine (Quant Studio 5) and SYBR Green PCR technology (Applied Biosystems, Thermo Fisher Scientific). B. thetaiotaomicron was quantified using species specific primers that have been established and validated before (39) ([…] and […]) with a cycling protocol of denaturation at 95° C. (2 min), 40 cycles of 95° C. (20 sec), 58° C. (20 sec) and 72° C. (30 sec). Each 17 μl qPCR mixture consisted of 8.5 μl of 2×SYBR Green MasterMix (Applied Biosystems, Thermo Fisher Scientific), 1.7 μl of BSA (100 μg/ml), 0.6 μl of each primer (10 μM), 3.60 μl PCR-grade water and 2 μl of extracted genomic DNA. DNA extracted from B. theta ATCC29148 was used to construct a standard curve with 10-fold dilutions of DNA templates of known concentrations. Concentrations of DNA used in the standard curves ranged from 33.75 ng/μl equivalent to 10^7 bacteria to 0.035 pg/μl equivalent to 10^1 bacteria. […]

Experiment [1] deals with CD4^+ T cells from TCRM mice. Kind of experiment: Ex vivo proliferation assay (CFSE dilution) after peptide re-stimulation. The format is cell-based, mouse. The note with it: 3 days. As to the method: Spleen cells were labelled with 10 μl of 5 mM carboxyfluorescein succinimidyl ester (CSFE, dissolved in DMSO) (Molecular Probes) in 10 ml of PBS for 10 min at 37° C. The staining reaction was stopped with 1 mL FCS (Lonza), followed by washing with PBS. A total of 2×10^5 splenocytes/well were seeded in 96-well round-bottom plate and MYH6614-629 (RSLKLMATLFSTYASADR, SEQ ID NO: 10) or Bacteroides β-galactosidase11-25 (TFLILMAALTATFASAQK, SEQ ID NO: 11), Enterobacter cysteine hydrolase10-27 (LLIGMMSTFSTYASAQET, SEQ ID NO: 12) or OVA323-339 (ISQAVHAAHAEINEAGR, SEQ ID NO: 13) peptide was added at the indicated concentrations. CSFE dilution was assessed by flow cytometry after 3 days of incubation at 37° C. All peptides were synthetized by Genscript with >80% of purity.

The subject of experiment [2] is CD4^+ T cells from heart and colon of TCRM mice. Kind of experiment: Ex vivo restimulation and cytokine production of murine T cells. The format is cell-based, mouse. As to the method: For assessment of ex vivo production of IFN-γ and IL-17, 10^6 lymphocytes were incubated for 3.5 h at 37° C. in 96-well round-bottom plates in 200 μL of RPMI per 5% FCS supplemented with 10 μg/mL brefeldin A (Sigma). Cells were stimulated with 0.25 μg of the different peptides (see below), or phorbol myristate acetate (50 ng/ml; Sigma)/ionomycin (500 ng/ml; Sigma) (PMA/l) as positive control, or were left untreated. After surface molecule labelling, cells were stained with the fixable viability dye Zombie Aqua (Biolegend). Cells were fixed with cytofix-cytoperm (BD Biosciences) for 20 min. Fixed cells were incubated at 4° C. for 40 min with permeabilization buffer (2% FCS, 0.5% saponin in PBS) containing antibodies to CD3, CD4, IFN-γ and IL-17A. Samples were measured using a BD LSR Fortessa (BD Biosciences). Data were analyzed using FlowJo software (Tree Star, Inc.).

The subject of experiment [3] is peripheral blood mononuclear cells. Kind of experiment: IFN-γ ELISPOT, human T cell stimulation. The note with it: Micro-DCM patients compared to healthy controls. In kind it is cell-based. Here is the method: IFN-γ ELISPOT was performed as described by Lv et. al. with minor modifications (7), Briefly, PBMCs from patients and healthy volunteers were isolated on density gradients. PBMCs were adjusted to 2×10^6 cells/ml in 0.5 ml of complete IVS medium supplemented with 8% of human serum. Cells were stimulated for 48 h with 0.25 μg/ml of the indicated peptide or left untreated as medium control. After incubation, cells were washed and re-suspended in 0.3 ml of RPMI/10% FOS and approximately 5×10^5 cells/0.1 ml were dispensed in duplicates into previously coated and blocked ELISPOT plates (IFN-γ base kit, MABTECH). After 24 h of incubation at 37° C. the ELISPOT plates were washed and developed as indicated by the manufacturer. Plates were counted using an ELISPOT reader and analyzed with the software ELISPOT 3.1SR (AID). Number of specific IFN-γ positive cells was calculated as the mean of the duplicates minus the mean of the medium control.

The next experiment has as its system TCRM T cells. Put plainly: Proliferation of transferred TCRM CD4^+ T cells after injection of peptide loaded dendritic cells. The format is in vivo, mouse. The note with it: TCRM CD4^+ T cells transferred into BALB/c mice. From the text: FIGS. 7A-I. Specificity and immune interaction of Bacteroides mimic peptide-specific CD4^+ T cells. (FIG. 7A) In vitro proliferation of CD4^+ T cells from TCRM mice or DO11.10 mice measured by CFSE dilution after re-stimulation with MYH6 or Bacteroides β-galactosidase peptide or ovalbumin peptide at indicated concentration (representative histograms from 1 out of 2 experiments) (FIG. 7B) Dendritic cells loaded with MYH6 or β-gal peptide from Bacteroides at the indicated concentration were co-cultured in vitro with CD4^+ T cells from TCRM mice. Maximum proliferation of CD4^+ T cells was analyzed by flow cytometry and effective concentration 50 (EC50) for each peptide was determined. (FIG. 7C) CD4^+ T cells from TCRM mice were adoptively transferred into BALB/c mice. Proliferation of CD4^+ T cells from TCRM mice was determined ex vivo by CFSE dilution after injection of peptide loaded dendritic cells (n=3). (FIG. 7D-FIG. 7E) Colonization of GF TCRM mice with SPF microbiota or B. thetaiotaomicron or E. coli. […] Fold increase values were calculated using the cytokine production in GF mice as baseline (mean±SEM). […] (FIG. 7H) experimental dosing, (FIG. 7I) representative dot plots left and quantification right of IgA bound bacteria; background was set using samples from Rag^−/− mice (mean±SEM). […]

These results are taken from patent publication US11617773B2, “Elimination of colonic bacterial driving lethal inflammatory cardiomyopathy” (Eligo Bioscience, priority 2020, dated 2023).

No end group written: not given here.

In the case of `[H]/N=C(/N)N[C@H]1[C@H](O)[C@@H](O)[C@H](O[C@@H]2O[C@@H](C)[C@](O)(C=O)[C@H]2O[C@@H]2O[C@@H](CO)[C@H](O)[C@@H](O)[C@@H]2NC)[C@@H](N/C(N)=N\[H])[C@@H]1O` [Streptomycin], in the experiment on Rag1^−/− mice, the “accumulation of TCR-transgenic CD4^+ T cells in hearts” value is on record as “significantly reduced accumulation” and the “cardiac inflammation by flow cytometry (heart-infiltrating CD45^+ cells)” value is given as “profound reduction”.

On to `CN[C@H](CC(C)C)C(=O)N[C@H]1C(=O)N[C@@H](CC(N)=O)C(=O)N[C@H]2C(=O)N[C@H]3C(=O)N[C@H](C(=O)N[C@H](C(=O)O)c4cc(O)cc(O)c4-c4cc3ccc4O)[C@H](O)c3ccc(c(Cl)c3)Oc3cc2cc(c3O[C@@H]2O[C@H](CO)[C@@H](O)[C@H](O)[C@H]2O[C@H]2C[C@](C)(N)[C@H](O)[C@H](C)O2)Oc2ccc(cc2Cl)[C@H]1O` [Vancomycin], for which the “B. theta levels in fecal samples” value in the experiment with B. thetaiotaomicron is recorded as “reduced”. Moreover, the “activity of Th1 cells” value in the experiment on Rag1^−/− mice (IFN-γ production) was “reduced to a lesser extent”. Moreover, in the experiment with Rag1^−/− mice (IL-17 production), the “activation of heart-infiltrating and colonic Th17 cells” value is given as “pronounced impact”. In addition, in the experiment on Rag1^−/− mice, the “accumulation of TCR-transgenic CD4^+ T cells in hearts” value is “significantly reduced accumulation” and the “cardiac inflammation by flow cytometry (heart-infiltrating CD45^+ cells)” value is recorded as “profound reduction”. Moreover, the “cardiac disease (histopathology)” value in the experiment with Rag1^−/− mice (day 28 post adoptive transfer) is on record as “significantly ameliorated”.

Take “LLIGMMSTFSTYASAQET (Enterobacter cysteine hydrolase 10-27) [Enterobacter cloacae peptide, Enterobacter cysteine hydrolase10-27 peptide synthetized by Genscript]”: in experiment [1], the “in vitro proliferation of CD4^+ T cells from TCRM mice” value is “not”.

With “RSLKLMATLFSTYASADR (MYH6 614-629) [MYH6 peptide, MYH6614-629 peptide synthetized by Genscript]”, in experiment [2] (CD4^+ T cells from colonic lamina propria, TCRM vs DO11.10), the “IFN-γ or IL-17 secretion upon ex-vivo re-stimulation” value is “only MYH6-specific CD4^+ T cells, but not ovalbumin-specific CD4^+ T cells from the colonic lamina propria were able to secrete IFN-γ or IL-17”.

With “SLKLMATLFSSYATAD (listed as Homo sapiens) [SEQ ID NO: 17, human myosin heavy chain 6 peptide]”, the “IFN-γ reactivity of PBMC” value in experiment [3] was “significantly higher IFN-γ reactivity”.

On to “TFLILMAALTATFASAQK [B. theta β-gal peptide, TFLILMAALTATFASAQK]”, for which, in the experiment with TCRM T cells, the “activation of TCRM T cells in vivo by peptide-pulsed dendritic cells” value was “efficient activation of TCRM T cells in vivo”. For the same molecule, in experiment [3], the “IFN-γ reactivity of PBMC” value is reported as “significantly higher IFN-γ reactivity”. The “in vitro proliferation of CD4^+ T cells from TCRM mice” value in experiment [1] is recorded as “induced in vitro proliferation”. The “ex vivo re-stimulation of transgenic CD4^+ T cells (cytokine production)” value in experiment [2] (heart and colon of 12 week old TCRM mice) was “ex vivo re-stimulation of transgenic CD4^+ T cells from heart and colon”.
